Experimental findings from patent US6362188B1, “Farnesyl protein transferase inhibitors” (Schering Corporation, priority 1998, dated 2002) are described below.

As usually defined, the IC50 is the concentration that gives 50% inhibition.

For the experiment, the system named is Human tumor cells. In words: Soft Agar Assay (anchorage-independent growth). The class given is cell-based. The following applies: colony outgrowth in soft agar, stated as a range for the group. The method, then: Anchorage-independent growth is a characteristic of tumorigenic cell lines. Human tumor cells can be suspended in growth medium containing 0.3% agarose and an indicated concentration of a farnesyl transferase inhibitor. The solution can be overlayed onto growth medium solidified with 0.6% agarose containing the same concentration of farnesyl transferase inhibitor as the top layer. After the top layer is solidified, plates can be incubated for 10-16 days at 37° C. under 5% CO2 to allow colony outgrowth. After incubation, the colonies can be stained by overlaying the agar with a solution of MTT (3-[4,5-dimethyl-thiazol-2-yl]-2,5-diphenyltetrazolium bromide, Thiazolyl blue) (1 mg/mL in PBS). Colonies can be counted and the IC50's can be determined.
Compound `Cc1cn(C[C@H]2CCCN(C(=O)[C@H]3CN([C@H]4c5ccc(Cl)cc5CCc5cc(Br)cnc54)CCN3C(=O)NC(C)(C)C)C2)cn1` [Example 192] registered an IC50 of 0.05 to 30 nM.

`Cc1nc(C)n(C[C@H]2CCCN(C(=O)[C@H]3CN([C@H]4c5ccc(Cl)cc5CCc5cc(Br)cnc54)CCN3C(=O)OC3CCCCC3)C2)c1C` [Example 214] showed an IC50 of 0.05 to 30 nM. Consider `Cc1cn(C[C@H]2CCCN(C(=O)[C@H]3CN([C@@H]4c5ccc(Cl)cc5CCc5cc(Br)cnc54)CCN3C(=O)OCC(C)(C)C)C2)cn1` [Example 187], for which the IC50 was 0.05 to 30 nM. As for `Cc1cn(C[C@@H]2CCCN(C(=O)[C@H]3CN([C@H]4c5ccc(Cl)cc5CCc5cccnc54)CCN3C(=O)OC(C)(C)C)C2)cn1` [Example 32], the IC50 fell in the range of 0.5 to 30 nM. The figure for `Cc1cn(C[C@H]2CCCN(C(=O)[C@H]3CN([C@@H]4c5ccc(Cl)cc5CCc5cc(Cl)cnc54)CCN3C(=O)OCC(C)(C)C)C2)cn1` [Example 245] is 0.05 to 30 nM; for `Cc1cn(C[C@@H]2CCCN(C(=O)[C@H]3CN([C@H]4c5ccc(Cl)cc5CCc5cc(Cl)cnc54)CCN3C(=O)C(C)(C)C)C2)cn1` [Example 240] it is 0.05 to 30 nM.

`CC(C)(C)OC(=O)N1CCN(C2c3ccc(Cl)cc3CCc3cc(Br)cnc32)C[C@@H]1C(=O)N1CCC[C@H](Cn2ccnc2)C1` (some centres unmarked) [Example 1] registered an IC50 of 0.5 to 30 nM. Compound `Cc1cn(C[C@H]2CCCN(C(=O)[C@H]3CN([C@H]4c5ccc(Cl)cc5CCc5cc(Br)cnc54)CCN3C(=O)OC(C)C)C2)cn1` [Example 184] displayed an IC50 of 0.05 to 30 nM. The compound `Cc1nc(C)n(CC2CCCN(C(=O)C3CN(C4c5ccc(Cl)cc5CCc5cccnc54)CCN3C(=O)OC3CCCCC3)C2)c1C` (single isomer, unassigned) [47(P)] yielded an IC50 of 0.05 to 30 nM. The figure for `Cc1[nH]cnc1CC1CN(C(=O)C2CN(C3c4ccc(Cl)cc4CCc4cc(Br)cnc43)CCN2C(=O)OC(C)(C)C)CCS1(=O)=O` (single isomer, unassigned) [Example 156] is 0.05 to 30 nM; for `Cc1nccn1CC1CCCN(C(=O)C2CN(C3c4ccc(Cl)cc4CCc4cccnc43)CCN2C(=O)NC(C)(C)C)C1` (centres unmarked) [Example 49] it is 0.5 to 30 nM; for `Cc1cn(C[C@H]2CCCN(C(=O)[C@H]3CN([C@H]4c5ccc(Cl)cc5CCc5cc(Br)cnc54)CCN3C(=O)OC3CCCCC3)C2)cn1` [Example 186] it is 0.05 to 30 nM. In turn, `CC(C)(C)OC(=O)N1CCN(C2c3ccc(Cl)cc3CCc3cc(Br)cnc32)C[C@@H]1C(=O)N1CCCCC1CCn1ccnc1` (stereo partly drawn) [Example 74, 1,1-dimethylethyl-4-(3-bromo-8-chloro-6,11-dihydro-5H-benzo[5,6]cyclohepta[1,2-b]pyridin-11-yl)-2(R)-[[2-[2-(1H-imidazol-1-yl)ethyl]-1-piperidinyl]carbonyl]-1-piperazinecarboxylate] gave an IC50 of 0.5 to 30 nM. `CCc1nccn1CC1CCCN(C(=O)C2CN(C3c4ccc(Cl)cc4CCc4cccnc43)CCN2C(=O)OC(C)(C)C)C1` (centres unmarked) [Example 34] displayed an IC50 of 0.5 to 30 nM. On to `Cc1cn(C[C@@H]2CCCN(C(=O)[C@H]3CN([C@H]4c5ccc(Cl)cc5CCc5cc(Br)cnc54)CCN3C(=O)OC3CCCCC3)C2)cn1` [Example 172], for which the IC50 lay in the range of 0.05 to 30 nM.

The compound `Cc1cn(C[C@H]2CCCN(C(=O)[C@H]3CN([C@@H]4c5ccccc5CCc5cc(Cl)cnc54)CCN3C(=O)NC3CCCCC3)C2)cn1` [Example 317] returned an IC50 of 0.05 to 30 nM.

The compound `Cc1[nH]cnc1CC1CN(C(=O)C2CN(C3c4ccc(Cl)cc4CCc4cc(Br)cnc43)CCN2C(=O)OC2CCCCC2)CCS1(=O)=O` (single isomer, unassigned) [Example 212] showed an IC50 of 0.05 to 30 nM. Take `Cc1cn(C[C@@H]2CCCN(C(=O)[C@H]3CN([C@@H]4c5ccccc5CCc5cc(Cl)cnc54)CCN3C(=O)OCC(C)(C)C)C2)cn1` [Example 297]: the IC50 lay within 0.05 to 30 nM.

`CC(C)(C)OC(=O)N1CCN([C@H]2c3ccc(Cl)cc3CCc3cc(Br)cnc32)C[C@@H]1C(=O)N1CCCCC1CCn1ccnc1` (stereo partly drawn) [Example 138, 1,1-dimethylethyl 4-(3-bromo-8-chloro-6,11-dihydro-5H-benzo[5,6]cyclohepta[1,2-b]pyridin-11(S)-yl)-2(R)-[[2-[2-(1H-imidazol-1-yl)ethyl]-1-piperidinyl]carbonyl]-1-piperazinecarboxylate]: the IC50 was 0.5 to 30 nM. `Cc1cncn1CC1CN(C(=O)C2CN(C3c4ccc(Cl)cc4CCc4cc(Br)cnc43)CCN2C(=O)OC(C)(C)C)CCS1(=O)=O` (centres unmarked) [Example 152] showed an IC50 of 0.05 to 30 nM.

`Cc1cn(C[C@]2(C)CCCN(C(=O)[C@H]3CN([C@H]4c5ccc(Cl)cc5CCc5cccnc54)CCN3C(=O)OC3CCCCC3)C2)cn1` [Example 417] registered an IC50 of 0.05 to 30 nM.

The compound `Cc1cn(CC2CCCN(C(=O)C3CN(C4c5ccc(Cl)cc5CCc5cc(Br)cnc54)CCN3C(=O)OCC(C)(C)C)C2)cn1` (centres unmarked) [Example 188] returned an IC50 of 0.05 to 30 nM. `Cc1cn(CC2CCCN(C(=O)C3CN(C4c5ncccc5CCc5cc(Cl)cc(Br)c54)CCN3C(=O)OC(C)(C)C)C2)cn1` (single isomer, unassigned) [Example 407] yielded an IC50 of 0.05 to 30 nM. The value for `CC1CCC(Cn2ccnc2)CN1C(=O)[C@H]1CN([C@H]2c3ccc(Cl)cc3CCc3cccnc32)CCN1C(=O)OC1CCCCC1` (some centres unmarked) [Example 424] was 0.05 to 30 nM.

Turning to `Cc1cn(C[C@@H]2CCCN(C(=O)[C@H]3CN([C@H]4c5ccc(Cl)cc5CCc5cc(Cl)cnc54)CCN3C(=O)NC(C)(C)C)C2)cn1` [Example 238], the IC50 lay within 0.05 to 30 nM. `CC(C)(C)OC(=O)N1CCN(C2c3ccc(Cl)cc3CCc3cc(Br)cnc32)CC1C(=O)N1CC[S+]([O-])C(Cn2ccnc2)C1` (centres unmarked) [Example 7] returned an IC50 of 0.5 to 30 nM. The value for `Cc1cn(CC2CCCN(C(=O)C3CN(C4c5ccc(Cl)cc5CCc5cc(Br)cnc54)CCN3C(=O)NC(C)(C)C)C2)cn1` (centres unmarked) [Example 177] was 0.05 to 30 nM; that for `Cc1cn(C[C@H]2CCCN(C(=O)[C@H]3CN([C@@H]4c5ccc(Cl)cc5CCc5cc(Br)cnc54)CCN3C(=O)OC(C)C)C2)cn1` [Example 183] was 0.05 to 30 nM; that for `Cc1nc(C)n(CC2CCCN(C(=O)C3CN(C4c5ccc(Cl)cc5CCc5cc(Br)cnc54)CCN3C(=O)OC(C)(C)C)C2)c1C` (centres unmarked) [Example 158] was 0.05 to 30 nM. The value for `Cc1cn(C[C@@H]2CCCN(C(=O)[C@H]3CN([C@@H]4c5ccc(Cl)cc5CCc5cc(Br)cnc54)CCN3C(=O)C(C)(C)C)C2)cn1` [Example 179] was 0.05 to 30 nM.

Take `Cc1cn(C[C@@H]2CCCN(C(=O)[C@H]3CN([C@@H]4c5ccc(Cl)cc5CCc5cc(Br)cnc54)CCN3C(=O)OC3CCCCC3)C2)cn1` [Example 171]: the IC50 fell in the range of 0.05 to 30 nM. In turn, `Cc1cn(CC2CCCN(C(=O)C3CN(C4c5ncccc5CCc5cccc(Cl)c54)CCN3C(=O)OC(C)(C)C)C2)cn1` (centres unmarked) [Example 394] had an IC50 of 0.05 to 30 nM. The figure for `Cc1cn(C[C@@H]2CCCN(C(=O)[C@H]3CN([C@@H]4c5ccc(Cl)cc5CCc5cc(Br)cnc54)CCN3C(=O)OC(C)C)C2)cn1` [Example 169] is 0.05 to 30 nM. `Cc1cn(C[C@@H]2CCCN(C(=O)[C@H]3CN([C@@H]4c5ccccc5CCc5cc(Cl)cnc54)CCN3C(=O)C(C)(C)C)C2)cn1` [Example 303] showed an IC50 of 0.05 to 30 nM. `Cc1nccn1CC1CN(C(=O)C2CN(C3c4ccc(Cl)cc4CCc4cc(Br)cnc43)CCN2C(=O)OC(C)(C)C)CCS1(=O)=O` (centres unmarked) [Example 151]: the IC50 lay in the range of 0.05 to 30 nM.
